Results from PMC12827894, “Structure-guided design of picomolar-level macrocyclic TRPC5 channel inhibitors with antidepressant activity” (Acta Pharmaceutica Sinica. B, 2025).
Where two headings read alike, the source gives them in different places.

How the values were obtained:
5-HT2B = target: T1, 5-HT2B (Homo sapiens, UniProt P41595); assay: cell-based; format: cell-based; conditions: 5-HT2B, 10 μmol/L
T1 construct: purchased ICE Bioscience ICESTP SafetyOne44 Panel

CCK1 = target: T2, CCK1 (Homo sapiens, UniProt P32238); assay: SafetyOne44 panel: CCK1; format: cell-based; conditions: 10 μmol/L
T2 construct: purchased ICE Bioscience ICESTP™ SafetyOne44 Panel
T2 sequence (P32238 1-428): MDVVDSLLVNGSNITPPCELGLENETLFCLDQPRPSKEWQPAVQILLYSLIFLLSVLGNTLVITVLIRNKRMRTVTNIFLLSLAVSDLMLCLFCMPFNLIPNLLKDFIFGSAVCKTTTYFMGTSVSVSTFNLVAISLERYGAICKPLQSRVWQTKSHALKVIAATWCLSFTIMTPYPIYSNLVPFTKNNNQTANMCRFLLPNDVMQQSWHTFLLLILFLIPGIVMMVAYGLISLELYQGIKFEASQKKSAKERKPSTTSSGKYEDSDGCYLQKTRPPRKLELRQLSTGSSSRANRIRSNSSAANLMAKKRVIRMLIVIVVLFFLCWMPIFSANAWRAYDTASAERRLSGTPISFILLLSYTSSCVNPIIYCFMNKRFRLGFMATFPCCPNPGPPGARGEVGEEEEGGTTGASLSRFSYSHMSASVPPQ

5-HTT = target: T3, 5-HTT (Homo sapiens, UniProt P31645); assay: SafetyOne44 panel: 5-HTT; format: cell-based; conditions: 10 μmol/L, read-out: Antagonist JDIC-127 @10 μmol/L
T3 construct: purchased ICE Bioscience ICESTP™ SafetyOne44 Panel

TRPC5 = target: T4, TRPC5 (Homo sapiens, UniProt Q9UL62); format: cell-based; conditions: 100 nmol/L EA; read-out: IC50, TRPC5, whole-cell patch-clamp
T4 sequence (Q9UL62 1-973): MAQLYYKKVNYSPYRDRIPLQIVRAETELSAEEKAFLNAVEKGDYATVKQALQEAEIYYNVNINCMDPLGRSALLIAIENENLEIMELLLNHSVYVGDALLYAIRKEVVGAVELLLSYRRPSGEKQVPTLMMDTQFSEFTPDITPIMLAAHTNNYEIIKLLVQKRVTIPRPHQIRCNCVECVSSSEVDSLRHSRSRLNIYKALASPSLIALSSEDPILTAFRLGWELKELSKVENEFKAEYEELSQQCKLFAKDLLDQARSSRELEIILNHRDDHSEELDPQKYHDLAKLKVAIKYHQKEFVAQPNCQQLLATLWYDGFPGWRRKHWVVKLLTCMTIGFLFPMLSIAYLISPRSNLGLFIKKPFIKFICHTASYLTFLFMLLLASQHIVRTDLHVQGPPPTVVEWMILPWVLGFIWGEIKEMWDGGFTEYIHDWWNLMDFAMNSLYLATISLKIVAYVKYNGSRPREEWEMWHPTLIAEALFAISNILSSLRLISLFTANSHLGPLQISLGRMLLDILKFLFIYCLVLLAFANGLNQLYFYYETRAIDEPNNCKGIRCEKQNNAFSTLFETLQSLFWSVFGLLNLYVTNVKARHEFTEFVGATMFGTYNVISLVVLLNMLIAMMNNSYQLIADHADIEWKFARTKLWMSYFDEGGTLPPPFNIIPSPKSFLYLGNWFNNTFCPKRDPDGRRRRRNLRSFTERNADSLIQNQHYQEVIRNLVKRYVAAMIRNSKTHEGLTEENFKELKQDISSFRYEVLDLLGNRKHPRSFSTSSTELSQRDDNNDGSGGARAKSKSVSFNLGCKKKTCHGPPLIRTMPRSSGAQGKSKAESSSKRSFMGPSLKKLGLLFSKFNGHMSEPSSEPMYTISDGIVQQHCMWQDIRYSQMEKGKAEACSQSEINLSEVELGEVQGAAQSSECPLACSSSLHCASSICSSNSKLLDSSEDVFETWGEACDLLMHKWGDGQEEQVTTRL

hERG [1] = target: T5, hERG (Homo sapiens, UniProt Q12809); conditions: 10 μmol/L, patch-clamp
TRPV1 = TRPV1 (Homo sapiens, UniProt Q8NER1); assay: Patch-clamp selectivity, TRPV1; format: cell-based; conditions: 10 μmol/L
H1 = H1 (Homo sapiens, UniProt P35367); conditions: H1, agonist mode
AR = target: T6, AR (Homo sapiens, UniProt P10275); assay: cell-based; format: cell-based
T6 construct: purchased ICE Bioscience ICESTP™ SafetyOne44 Panel

IKs = target: T7, IKs (Homo sapiens, UniProt P51787); assay: SafetyOne44 panel ion channels: IKs; format: cell-based; conditions: 5 μmol/L
T7 construct: ICE Bioscience ICESTP SafetyOne44 Panel

hERG [2] = target: T5, hERG; format: cell-based; set-up: purchased ICE Bioscience ICESTP SafetyOne44 Panel
ACHE = target: T8, ACHE (Homo sapiens, UniProt P22303); assay: biochemical; conditions: 10 μmol/L, read-out: Antagonist JDIC-127 @10 μmol/L
T8 construct: purchased ICE Bioscience ICESTP™ SafetyOne44 Panel

V1a = V1a (Homo sapiens, UniProt P37288); conditions: agonist mode
DAT = target: T9, DAT (Homo sapiens, UniProt Q01959); assay: SafetyOne44 panel: DAT; format: cell-based; conditions: 10 μmol/L, read-out: Antagonist JDIC-127 @10 μmol/L
T9 construct: purchased ICE Bioscience ICESTP™ SafetyOne44 Panel

in vivo = conditions: male, C57BL/6, mouse; for Vd: C57BL/6, 2 mpk
C57BL/6J mice = assay: m-CPP-induced anxiety model, open field test; format: in vivo; conditions: 10 mg/kg p.o.
Nav1.5 = target: T10, Nav1.5 (Homo sapiens, UniProt Q14524); assay: SafetyOne44 panel ion channels: Nav1.5; format: cell-based; conditions: Nav1.5, 5 μmol/L
T10 construct: ICE Bioscience ICESTP SafetyOne44 Panel

NET = target: T11, NET (Homo sapiens, UniProt P23975); assay: SafetyOne44 panel: NET; format: cell-based; conditions: NET, 10 μmol/L; read-out: Antagonist JDIC-127 @10 μmol/L
T11 construct: ICE Bioscience ICESTP SafetyOne44 Panel
T11 sequence (P23975 whole entry): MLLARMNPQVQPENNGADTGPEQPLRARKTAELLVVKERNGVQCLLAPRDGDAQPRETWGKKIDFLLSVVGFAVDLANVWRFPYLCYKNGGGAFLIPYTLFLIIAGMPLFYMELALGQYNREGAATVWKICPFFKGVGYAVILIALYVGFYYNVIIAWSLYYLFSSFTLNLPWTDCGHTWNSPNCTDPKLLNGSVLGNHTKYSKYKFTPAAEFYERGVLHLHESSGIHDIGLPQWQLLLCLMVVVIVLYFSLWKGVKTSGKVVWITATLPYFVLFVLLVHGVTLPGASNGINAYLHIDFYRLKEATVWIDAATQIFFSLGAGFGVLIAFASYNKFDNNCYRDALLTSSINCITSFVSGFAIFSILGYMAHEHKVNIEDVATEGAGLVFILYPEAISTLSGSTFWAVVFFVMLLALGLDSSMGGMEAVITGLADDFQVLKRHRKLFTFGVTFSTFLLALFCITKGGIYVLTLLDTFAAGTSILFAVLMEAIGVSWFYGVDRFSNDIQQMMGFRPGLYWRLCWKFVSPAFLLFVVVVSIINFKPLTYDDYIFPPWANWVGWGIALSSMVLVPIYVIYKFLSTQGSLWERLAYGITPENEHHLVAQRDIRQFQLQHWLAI

T6 sequence (P10275 whole entry): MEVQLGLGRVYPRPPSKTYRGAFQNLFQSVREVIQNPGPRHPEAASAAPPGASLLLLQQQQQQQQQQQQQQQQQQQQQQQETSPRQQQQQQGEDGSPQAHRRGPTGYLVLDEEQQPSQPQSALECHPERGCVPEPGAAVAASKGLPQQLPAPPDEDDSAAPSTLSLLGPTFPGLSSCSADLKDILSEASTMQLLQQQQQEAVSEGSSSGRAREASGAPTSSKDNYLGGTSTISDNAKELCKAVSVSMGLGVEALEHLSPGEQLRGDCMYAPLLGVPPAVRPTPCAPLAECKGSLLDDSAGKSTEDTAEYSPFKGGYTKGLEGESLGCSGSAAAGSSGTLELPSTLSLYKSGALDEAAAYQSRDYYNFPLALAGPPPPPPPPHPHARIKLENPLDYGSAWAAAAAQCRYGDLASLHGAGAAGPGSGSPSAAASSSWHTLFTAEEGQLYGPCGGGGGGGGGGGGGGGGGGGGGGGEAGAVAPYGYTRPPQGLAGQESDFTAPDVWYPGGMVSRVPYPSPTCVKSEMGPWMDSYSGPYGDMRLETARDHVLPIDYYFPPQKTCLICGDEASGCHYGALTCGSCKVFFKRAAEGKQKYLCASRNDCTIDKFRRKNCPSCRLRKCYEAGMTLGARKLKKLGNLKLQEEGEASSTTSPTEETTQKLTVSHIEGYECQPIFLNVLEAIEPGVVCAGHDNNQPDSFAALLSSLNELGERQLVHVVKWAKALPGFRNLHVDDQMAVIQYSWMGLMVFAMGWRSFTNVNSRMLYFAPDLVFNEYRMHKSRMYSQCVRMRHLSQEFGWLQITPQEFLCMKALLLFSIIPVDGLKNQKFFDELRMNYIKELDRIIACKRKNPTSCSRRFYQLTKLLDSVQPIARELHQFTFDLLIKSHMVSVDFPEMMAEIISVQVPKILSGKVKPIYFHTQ
T1 sequence (P41595 whole entry): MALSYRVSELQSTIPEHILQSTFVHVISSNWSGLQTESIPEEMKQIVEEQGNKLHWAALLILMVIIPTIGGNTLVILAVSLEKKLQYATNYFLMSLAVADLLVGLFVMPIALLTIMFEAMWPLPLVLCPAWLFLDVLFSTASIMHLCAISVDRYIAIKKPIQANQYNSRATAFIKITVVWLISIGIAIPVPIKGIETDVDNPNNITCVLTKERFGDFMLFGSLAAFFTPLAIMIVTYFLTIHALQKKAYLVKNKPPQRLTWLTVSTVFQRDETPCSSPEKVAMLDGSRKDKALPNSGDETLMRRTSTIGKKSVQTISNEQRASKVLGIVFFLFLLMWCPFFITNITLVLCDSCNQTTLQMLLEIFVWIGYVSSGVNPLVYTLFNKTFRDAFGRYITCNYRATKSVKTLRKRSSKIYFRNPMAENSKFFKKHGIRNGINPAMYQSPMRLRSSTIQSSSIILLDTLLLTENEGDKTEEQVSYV
T5 sequence (Q12809 whole entry): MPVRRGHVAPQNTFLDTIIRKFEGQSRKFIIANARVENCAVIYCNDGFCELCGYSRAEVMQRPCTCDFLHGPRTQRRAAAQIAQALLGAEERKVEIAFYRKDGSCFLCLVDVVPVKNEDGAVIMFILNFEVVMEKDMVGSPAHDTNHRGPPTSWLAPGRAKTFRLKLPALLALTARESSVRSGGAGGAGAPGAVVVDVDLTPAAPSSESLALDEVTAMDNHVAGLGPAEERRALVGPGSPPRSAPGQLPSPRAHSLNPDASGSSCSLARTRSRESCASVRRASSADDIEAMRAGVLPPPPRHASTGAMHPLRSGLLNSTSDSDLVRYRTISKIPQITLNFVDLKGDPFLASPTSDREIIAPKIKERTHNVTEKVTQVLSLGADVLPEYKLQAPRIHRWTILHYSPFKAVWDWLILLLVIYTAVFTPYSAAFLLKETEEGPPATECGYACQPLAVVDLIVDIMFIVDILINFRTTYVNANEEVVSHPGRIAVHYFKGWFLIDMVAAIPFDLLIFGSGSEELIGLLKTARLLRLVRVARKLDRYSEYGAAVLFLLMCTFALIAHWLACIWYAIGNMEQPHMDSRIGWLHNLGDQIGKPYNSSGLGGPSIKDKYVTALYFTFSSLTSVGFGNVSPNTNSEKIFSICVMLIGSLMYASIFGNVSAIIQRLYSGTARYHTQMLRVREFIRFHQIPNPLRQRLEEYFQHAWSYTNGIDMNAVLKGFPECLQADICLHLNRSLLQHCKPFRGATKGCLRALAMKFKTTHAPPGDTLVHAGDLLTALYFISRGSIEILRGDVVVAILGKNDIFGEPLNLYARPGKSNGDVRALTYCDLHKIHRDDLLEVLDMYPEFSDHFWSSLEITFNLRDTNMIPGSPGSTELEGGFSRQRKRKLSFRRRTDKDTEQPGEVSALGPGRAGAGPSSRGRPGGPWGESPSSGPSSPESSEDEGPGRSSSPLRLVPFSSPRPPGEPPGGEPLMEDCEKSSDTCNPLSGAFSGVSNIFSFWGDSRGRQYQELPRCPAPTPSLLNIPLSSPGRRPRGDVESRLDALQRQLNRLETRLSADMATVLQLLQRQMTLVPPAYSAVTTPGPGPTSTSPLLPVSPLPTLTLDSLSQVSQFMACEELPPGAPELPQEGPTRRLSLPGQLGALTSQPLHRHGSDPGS
T3 sequence (P31645 whole entry): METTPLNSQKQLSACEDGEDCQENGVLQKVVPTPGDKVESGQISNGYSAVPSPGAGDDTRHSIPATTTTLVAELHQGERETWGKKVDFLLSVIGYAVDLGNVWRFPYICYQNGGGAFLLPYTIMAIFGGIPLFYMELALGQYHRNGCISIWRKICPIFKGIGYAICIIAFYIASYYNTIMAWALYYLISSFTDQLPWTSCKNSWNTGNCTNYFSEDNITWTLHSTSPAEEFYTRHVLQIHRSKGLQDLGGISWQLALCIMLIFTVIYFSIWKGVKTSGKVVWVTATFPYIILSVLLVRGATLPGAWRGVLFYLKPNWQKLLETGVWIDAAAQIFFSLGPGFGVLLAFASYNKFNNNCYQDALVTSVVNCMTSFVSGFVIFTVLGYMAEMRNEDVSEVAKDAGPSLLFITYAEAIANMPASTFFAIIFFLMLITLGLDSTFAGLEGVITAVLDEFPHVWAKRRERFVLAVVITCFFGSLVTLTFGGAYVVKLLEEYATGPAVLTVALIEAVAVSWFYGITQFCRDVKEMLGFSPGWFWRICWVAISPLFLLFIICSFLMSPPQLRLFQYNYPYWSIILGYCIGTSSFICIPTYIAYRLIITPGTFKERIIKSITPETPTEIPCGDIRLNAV
T7 sequence (P51787 whole entry): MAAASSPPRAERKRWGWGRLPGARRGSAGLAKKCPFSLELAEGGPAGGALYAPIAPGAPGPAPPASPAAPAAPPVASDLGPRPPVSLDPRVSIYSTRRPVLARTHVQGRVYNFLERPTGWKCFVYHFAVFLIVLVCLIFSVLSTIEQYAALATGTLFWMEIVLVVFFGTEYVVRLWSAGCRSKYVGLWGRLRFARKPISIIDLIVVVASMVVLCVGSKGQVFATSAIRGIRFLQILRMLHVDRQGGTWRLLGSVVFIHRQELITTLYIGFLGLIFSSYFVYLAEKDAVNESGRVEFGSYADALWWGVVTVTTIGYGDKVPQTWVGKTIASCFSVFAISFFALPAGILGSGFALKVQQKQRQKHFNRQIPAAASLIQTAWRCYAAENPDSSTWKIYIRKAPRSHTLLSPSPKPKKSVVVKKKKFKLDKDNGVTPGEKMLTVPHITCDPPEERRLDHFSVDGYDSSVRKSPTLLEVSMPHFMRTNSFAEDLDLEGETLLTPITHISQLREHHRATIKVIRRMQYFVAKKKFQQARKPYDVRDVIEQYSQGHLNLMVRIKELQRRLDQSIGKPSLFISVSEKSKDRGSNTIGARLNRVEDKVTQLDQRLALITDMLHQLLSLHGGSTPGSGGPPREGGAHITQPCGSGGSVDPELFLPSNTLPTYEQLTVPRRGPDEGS
Chain of V1a (P37288 whole entry): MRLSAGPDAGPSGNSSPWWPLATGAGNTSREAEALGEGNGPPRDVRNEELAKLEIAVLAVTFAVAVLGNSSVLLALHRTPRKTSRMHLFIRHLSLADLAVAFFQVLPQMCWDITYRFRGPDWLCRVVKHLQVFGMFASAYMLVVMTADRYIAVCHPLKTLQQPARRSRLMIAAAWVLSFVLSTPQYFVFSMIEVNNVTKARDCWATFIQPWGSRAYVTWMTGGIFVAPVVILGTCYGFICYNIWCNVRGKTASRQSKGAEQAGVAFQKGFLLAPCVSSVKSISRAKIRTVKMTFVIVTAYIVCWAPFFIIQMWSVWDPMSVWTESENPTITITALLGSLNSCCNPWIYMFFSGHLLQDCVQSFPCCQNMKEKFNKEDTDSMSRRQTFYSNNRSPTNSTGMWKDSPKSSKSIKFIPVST

O=c1c2c3nc(n2Cc2ccc(Cl)cc2)Oc2ccc(F)c(c2)OCCCCCCn3c(=O)n1CCCO [JDIC-127]
Agonist JDIC-127 @10 μmol/L (5-HT2B; agonist mode): 0.67%
inhibition at 10 µM (5-HT2B; antagonist mode, read-out: Antagonist JDIC-127 @10 μmol/L): -0.45%
Agonist JDIC-127 @10 μmol/L (CCK1; CCK1, agonist mode): –3.36%
inhibition at 10 µM (CCK1; CCK1, antagonist mode, read-out: Antagonist JDIC-127 @10 μmol/L): 6.16%
AUC0–t (C57BL/6, 2 mpk, i.v.): 496 h∗ng/mL
AUC0–∞ (C57BL/6, 2 mpk, i.v.): 499 h∗ng/mL
AUC0–t (C57BL/6, 10 mpk, p.o.): 187 h∗ng/mL
AUC0–∞ (C57BL/6, 10 mpk, p.o.): 193 h∗ng/mL
CL (C57BL/6, 10 mpk, p.o.): 865 mL/min/kg
Vd (C57BL/6, 10 mpk, p.o.): 107 L/kg
inhibition at 10 µM (5-HTT): -31.8%
IC50 (TRPC5): 0.374 nM
inhibition of hERG activity (hERG [1]): less than 33%
inhibition at 10 µM (TRPV1): < 33%
Agonist JDIC-127 @10 μmol/L (H1): 3.21%
Agonist JDIC-127 @10 μmol/L (AR; agonist mode): 0.06%
inhibition at 10 µM (AR; antagonist mode, 10 μmol/L, read-out: Antagonist JDIC-127 @10 μmol/L): -7.02%
Antagonist JDIC-127 @5 μmol/L (IKs): 22.77%
Antagonist JDIC-127 @5 μmol/L (hERG [2]): 19.40%
inhibition at 10 µM (ACHE): 0.88%
Agonist JDIC-127 @10 μmol/L (V1a): –7.01%
inhibition at 10 µM (DAT): -57.6%
bioavailability (in vivo): 7.5%
C0 (in vivo; iv, 2 mg/kg): 1450 ng/mL
MRT (in vivo; iv, 2 mg/kg): 52.8 min
clearance (in vivo; iv, 2 mg/kg): 66.8 mL/min/kg
half-life (in vivo; iv, 2 mg/kg): 59.4 min
Vd (in vivo; iv, 2 mg/kg, VSS, i.v.): 3.51 L/kg
Vd (in vivo; iv, 2 mg/kg, Vd): 5.71 L/kg
Cmax (in vivo; po, 10 mg/kg): 177 ng/mL
MRT (in vivo; po, 10 mg/kg): 114 min
Tmax (in vivo; po, 10 mg/kg): 15 min
half-life (in vivo; po, 10 mg/kg): 84 min
number of entries into the central area, OFT (C57BL/6J mice): significantly increased
Antagonist JDIC-127 @5 μmol/L (Nav1.5): 2.98%
inhibition at 10 µM (NET): -5.84%
